Assay results from article PMC7180572, “5-Alkylamino-N-phenylpyrazine-2-carboxamides: Design, Preparation, and Antimycobacterial Evaluation” (Molecules, 2020).
Converted amounts (≈) assume the structure as drawn. Where two headings read alike, the source gives them in different places.

Experiments:
[1] = system: Candida krusei ATCC 6258, CCM 8271; assay: Antifungal microdilution broth method (EUCAST); assay type: cell-based; details: Pichia kudriavzevii
[2] = system: Aspergillus flavus CCM 8363; assay: Antifungal microdilution broth method (EUCAST); assay type: cell-based; details: read-out: MIC AFla
[3] = system: Staphylococcus aureus methicillin resistant ATCC 43300, CCM 4750; assay: microbe, parasite or virus in culture; assay type: cell-based; details: ATCC 43300 / CCM 4750 / MRSA, read-out: MIC MRSA
[4] = system: Mycobacterium smegmatis DSM 43465 (ATCC 607); assay: Microdilution broth, modified Microplate Alamar Blue Assay, whole cell growth inhibition; assay type: cell-based; details: Mycolicibacterium smegmatis, read-out: MIC Mycobacterium smegmatis
HepG2 cells = assay: HepG2 cytotoxicity, CellTiter 96 (MTS) assay; assay type: cell-based, human; details: for IC50: Homo sapiens, HepG2, 24 h, read-out: HepG2 IC50; for SI, selectivity index: IC50 (HepG2)/MIC against Mtb H37Ra (in µM)
[5] = system: Trichophyton interdigitale ATCC 9533, CCM 8377; assay: Antifungal microdilution broth method (EUCAST); assay type: cell-based; details: read-out: MIC TI
[6] = system: Mycobacterium aurum DSM 43999 (ATCC 23366); assay: Microdilution broth, modified Microplate Alamar Blue Assay, whole cell growth inhibition; assay type: cell-based; details: Mycolicibacterium aurum, read-out: MIC Mycobacterium aurum
[7] = system: Candida parapsilosis ATCC 22019, CCM 8260; assay: Antifungal microdilution broth method (EUCAST); assay type: cell-based; details: Lodderomyces parapsilosis
[8] = system: Mycobacterium tuberculosis H37Ra ITM-M006710 (ATCC 9431); assay: Microdilution broth, modified Microplate Alamar Blue Assay, whole cell growth inhibition; assay type: cell-based; details: Mycobacterium tuberculosis; in vitro, Middlebrook 7H9 broth, resazurin; read-out: MIC Mtb H37Ra
[9] = system: Enterococcus faecalis ATCC 29212, CCM 4224; assay: Antibacterial microdilution broth method (EUCAST); assay type: cell-based; details: read-out: MIC EF
[10] = system: Aspergillus fumigatus ATCC 204305; assay: Antifungal microdilution broth method (EUCAST); assay type: cell-based; details: read-out: MIC AF
[11] = system: Pseudomonas aeruginosa ATCC 27853, CCM 3955; assay: Antibacterial microdilution broth method (EUCAST); assay type: cell-based; details: read-out: MIC PA
[12] = system: Acinetobacter baumanii ATCC 19606, DSM 30007; assay: Antibacterial microdilution broth method (EUCAST); assay type: cell-based; details: Acinetobacter baumannii
[13] = system: Absidia corymbifera CCM 8077 (Lichtheimia corymbifera); assay: Antifungal microdilution broth method (EUCAST); assay type: cell-based; details: read-out: MIC AC
[14] = system: Klebsiella pneumoniae ATCC 10031, CCM 4415; assay: Antibacterial microdilution broth method (EUCAST)
[15] = system: Staphylococcus epidermidis ATCC 12228, CCM 4418; assay: Antibacterial microdilution broth method (EUCAST); assay type: cell-based; details: read-out: MIC SE
[16] = system: Escherichia coli ATCC 25922, CCM 3954; assay: Antibacterial microdilution broth method (EUCAST); assay type: cell-based; details: read-out: MIC EC
[17] = system: Staphylococcus aureus spp.aureus ATCC 29213, CCM 4223; assay: Antibacterial microdilution broth method (EUCAST); assay type: cell-based; details: read-out: MIC SA
[18] = system: Candida albicans ATCC 24433, CCM 8320; assay: Antifungal microdilution broth method (EUCAST); assay type: cell-based
[19] = system: Candida tropicalis ATCC 750, CCM 8264; assay: Antifungal microdilution broth method (EUCAST); assay type: cell-based; details: read-out: MIC CT

With CCCCCCCCNc1cnc(C(=O)Nc2cccc(C(F)(F)F)c2)cn1 [Compound 1f, 5-(Octylamino)-N-(3-(trifluoromethyl)phenyl)pyrazine-2-carboxamide] the MIC ([1]; 24 h, read-out: MIC CK) was over 500 µM, the MIC ([1]; 48 h, read-out: MIC CK) was over 500 µM and the MIC ([2]; CCM8363, 24 h) was over 500 µM. The MIC ([2]; CCM8363, 48 h) was over 500 µM, the MIC ([3]; 24 h) was over 500 µM and the MIC ([3]; 48 h) was over 500 µM. It also gave an MIC [4] of at least 500 µg/mL, an IC50 (HepG2 cells) of 66.2 µM and an MIC ([5]; 72 h) of over 500 µM. The MIC ([5]; 120 h) was over 500 µM, the melting point was 135 to 136 °C and the MIC [6] was at least 500 µg/mL. The MIC ([7]; 24 h, read-out: MIC CP) was over 500 µM, the MIC ([7]; 48 h, read-out: MIC CP) was over 500 µM and the MIC [8] was at least 500 µg/mL. It also gave an MIC ([9]; 24 h) of over 500 µM, an MIC ([9]; 48 h) of over 500 µM and an MIC ([10]; ATCC204305, 24 h) of over 500 µM. For the same compound, the MIC ([10]; ATCC204305, 48 h) was over 500 µM, the MIC ([11]; 72 h) was over 500 µM and the MIC ([11]; 120 h) was over 500 µM. For the same compound, the MIC ([12]; 24h) was over 500 µM, the MIC ([12]; 48h) was over 500 µM and the MIC ([13]; CCM8077, 24 h) was over 500 µM. For the same compound, the MIC ([13]; CCM8077, 48 h) was over 500 µM, the “MIC KP” value ([14]; 24h) was over 500 µM and the “MIC KP” value ([14]; 48h) was over 500 µM. The MIC ([15]; 24 h) was over 500 µM, the MIC ([15]; 48 h) was over 500 µM and the MIC ([16]; 24 h) was over 500 µM. The MIC ([16]; 48 h) was over 500 µM, the MIC ([17]; 24 h) was over 500 µM and the MIC ([17]; 48 h) was over 500 µM. For the same compound, the MIC ([18]; 24 h, read-out: MIC CA) was over 500 µM, the MIC ([18]; 48 h, read-out: MIC CA) was over 500 µM and the MIC ([19]; 24 h) was over 500 µM. It also gave an MIC ([19]; 48 h) of over 500 µM.
Work on CCCNc1cnc(C(=O)Nc2cccc(O)c2)cn1 [Compound 2a, N-(3-hydroxyphenyl)-5-(propylamino)pyrazine-2-carboxamide] yielded an MIC ([1]; 24 h, read-out: MIC CK) of 62.5 µM (≈ 17 µg/mL), an MIC ([1]; 48 h, read-out: MIC CK) of 62.5 µM (≈ 17 µg/mL) and an MIC ([1]; read-out: MIC CK (Candida krusei)) of 62.5 µM (≈ 17 µg/mL). For the same compound, the MIC ([2]; CCM8363, 24 h) was over 125 µM, the MIC ([2]; CCM8363, 48 h) was over 125 µM and the MIC ([3]; 24 h) was over 125 µM. For the same compound, the MIC ([3]; 48 h) was over 125 µM, the MIC [4] was at least 500 µg/mL and the IC50 (HepG2 cells) was over 100 µM. The “SI, selectivity index” value (HepG2 cells) was over 3.5, the MIC ([5]; 72 h) was over 125 µM and the MIC ([5]; 120 h) was over 125 µM. For the same compound, the melting point was 194 to 195 °C, the MIC [6] was at least 500 µg/mL and the MIC ([7]; 24 h, read-out: MIC CP) was over 125 µM. The MIC ([7]; 48 h, read-out: MIC CP) was over 125 µM, the MIC ([7]; read-out: MIC CP (Candida parapsilosis)) was over 125 µM and the MIC [8] was 7.81 µg/mL (≈ 28.7 µM). For the same compound, the MIC ([9]; 24 h) was over 125 µM, the MIC ([9]; 48 h) was over 125 µM and the MIC ([10]; ATCC204305, 24 h) was over 125 µM. It also gave an MIC ([10]; ATCC204305, 48 h) of over 125 µM, an MIC ([11]; 72 h) of over 125 µM and an MIC ([11]; 120 h) of over 125 µM. For the same compound, the MIC ([12]; 24h) was over 125 µM, the MIC ([12]; 48h) was over 125 µM and the MIC ([13]; CCM8077, 24 h) was over 125 µM. The MIC ([13]; CCM8077, 48 h) was over 125 µM, the “MIC KP” value ([14]; 24h) was over 125 µM and the “MIC KP” value ([14]; 48h) was over 125 µM. For the same compound, the MIC ([15]; 24 h) was over 125 µM, the MIC ([15]; 48 h) was over 125 µM and the MIC ([16]; 24 h) was over 125 µM. The MIC ([16]; 48 h) was over 125 µM, the MIC ([17]; 24 h) was over 125 µM and the MIC ([17]; 48 h) was over 125 µM. It also gave an MIC ([18]; 24 h, read-out: MIC CA) of over 125 µM, an MIC ([18]; 48 h, read-out: MIC CA) of over 125 µM and an MIC ([18]; read-out: MIC CA (Candida albicans)) of over 125 µM. It also gave an MIC ([19]; 24 h) of over 125 µM and an MIC ([19]; 48 h) of over 125 µM.
In the case of CCCCNc1cnc(C(=O)Nc2cccc(O)c2)cn1 [Compound 2b, 5-(Butylamino)pyrazine-N-(3-hydroxyphenyl)-2-carboxamide], the MIC ([1]; 24 h, read-out: MIC CK) is reported as over 125 µM, the MIC ([1]; 48 h, read-out: MIC CK) is reported as over 125 µM and the MIC ([2]; CCM8363, 24 h) is reported as over 125 µM. The MIC ([2]; CCM8363, 48 h) was over 125 µM, the MIC ([3]; 24 h) was over 500 µM and the MIC ([3]; 48 h) was over 500 µM. For the same compound, the MIC [4] was at least 500 µg/mL, the IC50 (HepG2 cells) was over 25 µM and the “SI, selectivity index” value (HepG2 cells) was over 0.92. For the same compound, the MIC ([5]; 72 h) was over 125 µM, the MIC ([5]; 120 h) was over 125 µM and the melting point was 203 to 204 °C. For the same compound, the MIC [6] was at least 500 µg/mL, the MIC ([7]; 24 h, read-out: MIC CP) was over 125 µM and the MIC ([7]; 48 h, read-out: MIC CP) was over 125 µM. For the same compound, the MIC [8] was 7.81 µg/mL (≈ 27.3 µM), the MIC ([9]; 24 h) was over 500 µM and the MIC ([9]; 48 h) was over 500 µM. For the same compound, the MIC ([10]; ATCC204305, 24 h) was over 125 µM, the MIC ([10]; ATCC204305, 48 h) was over 125 µM and the MIC ([11]; 72 h) was over 500 µM. The MIC ([11]; 120 h) was over 500 µM, the MIC ([12]; 24h) was over 500 µM and the MIC ([12]; 48h) was over 500 µM. The MIC ([13]; CCM8077, 24 h) was over 125 µM, the MIC ([13]; CCM8077, 48 h) was over 125 µM and the “MIC KP” value ([14]; 24h) was over 500 µM. The “MIC KP” value ([14]; 48h) was over 500 µM, the MIC ([15]; 24 h) was over 500 µM and the MIC ([15]; 48 h) was over 500 µM. For the same compound, the MIC ([16]; 24 h) was over 500 µM, the MIC ([16]; 48 h) was over 500 µM and the MIC ([17]; 24 h) was over 500 µM. For the same compound, the MIC ([17]; 48 h) was over 500 µM, the MIC ([18]; 24 h, read-out: MIC CA) was over 125 µM and the MIC ([18]; 48 h, read-out: MIC CA) was over 125 µM. For the same compound, the MIC ([19]; 24 h) was over 125 µM and the MIC ([19]; 48 h) was over 125 µM.
